Experimental findings from patent publication US12365687B2 (Hoffmann-La Roche Inc., priority 2021, dated 2025) are described below.

By Ki is commonly meant a measure of affinity in units of concentration, obtained from inhibition or displacement.

Assay [1] deals with human GABAA α2β2γ1 receptor (Homo sapiens (Human), UniProt P47869+Q8N1C3). Nature of the assay: Radioligand binding assay for γ1-containing GABAA subtypes, [3H]RO7239181 competition (α2β2γ1).
In assay [2] the target is α2β2γ1 GABAA receptor subtype (Homo sapiens (Human), UniProt P47869+Q8N1C3). Description: Two-electrode voltage clamp electrophysiology in Xenopus oocytes expressing GABAA receptors (modulation of GABA EC20 current). The following applies: for Efficacy (GABA)%: % modulation of GABA EC20 = 100*(Fold increase-1), α2β2γ1 oocytes, compound at approx. 30-fold Ki; for Fold increase h-GABA-A α2β2γ1 oocyte @ 30-fold Ki: Xenopus oocytes expressing α2β2γ1, compound at approx. 30-fold its Ki α2β2γ1, GABA EC20 current. Format: cell-based. A digest of the protocol:
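Two-electrode voltage clamp at −80 mV, room temperature, 3-5 days after mRNA injection into oocytes. GABA applied at EC20 for 1.5 min, twice, with compound during second application; at least 3 oocytes per concentration. Efficacy = extremum of point-by-point current ratio, expressed as 100×(fold increase−1).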
For orientation: Two-electrode voltage clamp is typically applied to oocytes expressing channels or transporters.

Assay [3] has as its target human GABAA α5β2γ1 receptor (Homo sapiens (Human), UniProt P31644+Q8N1C3). Description: Radioligand binding assay for γ1-containing GABAA subtypes, [3H]RO7239181 competition (α5β2γ1).
In assay [4] the target is human GABAA α1β3γ2 receptor (Homo sapiens (Human), UniProt P14867+P18507). Nature of the assay: Radioligand binding assay for γ2-containing GABAA subtypes, [3H]Flumazenil competition (α1β3γ2). The following applies: for γ2/γ1 Selectivity Ratio: Ki α1β3γ2 (nM)/Ki α2β2γ1 (nM); for LogSel: Log[Ki α1β3γ2 (nM)/Ki α2β2γ1 (nM)].
Setting [5] is: Ki h-GABAA α2β2γ1, [3H]RO7239181 competition binding, human GABAA α2β2γ1.
The mark [6] stands for this setting: Ki h-GABAA α2β2γ1, displacement of [3H]RO7239181, membranes of HEK293F cells expressing human receptors, means of two determinations.

As to `C[C@@H]1N=C(c2ncccc2F)c2c(ccc(Cl)c2Cl)-n2nc(C(=O)N3CCC3)nc21` [Example 42, azetidin-1-yl-[(4S)-7,8-dichloro-6-(3-fluoro-2-pyridyl)-4-methyl-4H-[1,2,4]triazolo[1,5-a][1,4]benzodiazepin-2-yl]methanone], the Ki in assay [1] (setting [5]) came out at 50.1 nM. In addition, in assay [1] (setting [6]), the Ki was 50.1 nM. Moreover, in assay [2], the “Efficacy (GABA)%” value is reported as 114% and the “Fold increase h-GABA-A α2β2γ1 oocyte @ 30-fold Ki” value amounted to 2.14. Besides, the Ki in assay [3] was determined as 4.24 nM. For the same compound, in assay [4], the affinity, expressed as Ki, was 2630 nM; the “γ2/γ1 Selectivity Ratio” value is 52.5; the LogSel came out at 1.72.
In the case of `C[C@@H]1N=C(c2c(F)cccc2F)c2c(ccc(Cl)c2Cl)-n2nc(C(=O)N3CC[C@H](O)C3)nc21` [Example 43, [(4S)-7,8-dichloro-6-(2,6-difluorophenyl)-4-methyl-4H-[1,2,4]triazolo[1,5-a][1,4]benzodiazepin-2-yl]-[(3S)-3-hydroxypyrrolidin-1-yl]methanone], the affinity in assay [1] (setting [5]) corresponds to a Ki of 4.7 nM. In assay [1] (setting [6]), the Ki was found to be 4.75 nM. In addition, in assay [2], the “Efficacy (GABA)%” value was determined as 71% and the “Fold increase h-GABA-A α2β2γ1 oocyte @ 30-fold Ki” value is given as 1.71. In assay [3], this compound gave a Ki of 1.26 nM. Besides, in assay [4], affinity was put at a Ki of 837 nM, the “γ2/γ1 Selectivity Ratio” value is reported as 176.3 and the LogSel is recorded as 2.25.
In the case of `C[C@@H]1N=C(c2ncccc2F)c2c(ccc(Cl)c2Cl)-n2nc(C(=O)N3CC(O)C3)nc21` [Example 44, [(4S)-7,8-dichloro-6-(3-fluoro-2-pyridyl)-4-methyl-4H-[1,2,4]triazolo[1,5-a][1,4]benzodiazepin-2-yl]-(3-hydroxyazetidin-1-yl)methanone], the Ki in assay [1] (setting [5]) came out at 25.9 nM; in assay [1] (setting [6]), 25.9 nM; in assay [3], 9.52 nM; in assay [4], 6620 nM. Further, in assay [2], the “Efficacy (GABA)%” value was determined as 133%. The “Fold increase h-GABA-A α2β2γ1 oocyte @ 30-fold Ki” value in assay [2] amounted to 2.33. Moreover, the “γ2/γ1 Selectivity Ratio” value in assay [4] turned out to be 255.1. The LogSel in assay [4] came to 2.41.
On to `CO[C@H]1CCN(C(=O)c2nc3n(n2)-c2ccc(Cl)c(Cl)c2C(c2c(F)cccc2F)=N[C@H]3C)C1` [Example 45, [(4S)-7,8-dichloro-6-(2,6-difluorophenyl)-4-methyl-4H-[1,2,4]triazolo[1,5-a][1,4]benzodiazepin-2-yl]-[(3S)-3-methoxypyrrolidin-1-yl]methanone], for which the affinity in assay [1] (setting [5]) corresponds to a Ki of 5.4 nM. In assay [1] (setting [6]), this compound displayed a Ki of 5.39 nM. In addition, in assay [2], the “Efficacy (GABA)%” value was determined as 41% and the “Fold increase h-GABA-A α2β2γ1 oocyte @ 30-fold Ki” value amounted to 1.41. For the same compound, in assay [3], the Ki was 2.2 nM. Further, in assay [4], the affinity, expressed as Ki, was 1350 nM; the “γ2/γ1 Selectivity Ratio” value is given as 250.3; the LogSel was 2.40.
In the case of `CO[C@@H]1CCN(C(=O)c2nc3n(n2)-c2ccc(Cl)c(Cl)c2C(c2c(F)cccc2F)=N[C@H]3C)C1` [Example 46, [(4S)-7,8-dichloro-6-(2,6-difluorophenyl)-4-methyl-4H-[1,2,4]triazolo[1,5-a][1,4]benzodiazepin-2-yl]-[(3R)-3-methoxypyrrolidin-1-yl]methanone], the Ki in assay [1] (setting [5]) was 5.9 nM; in assay [1] (setting [6]), 5.91 nM; in assay [3], 2.14 nM; in assay [4] it was 867 nM. Also, in assay [2], the “Efficacy (GABA)%” value was determined as 73%. Moreover, the “Fold increase h-GABA-A α2β2γ1 oocyte @ 30-fold Ki” value in assay [2] came to 1.73. Also, the “γ2/γ1 Selectivity Ratio” value in assay [4] is recorded as 146.6. Moreover, in assay [4], the LogSel is 2.17.
As for `C[C@@H]1N=C(c2c(F)cccc2F)c2c(ccc(Cl)c2Cl)-n2nc(C(=O)N3CC[C@@H](O)C3)nc21` [Example 47, [(4S)-7,8-dichloro-6-(2,6-difluorophenyl)-4-methyl-4H-[1,2,4]triazolo[1,5-a][1,4]benzodiazepin-2-yl]-[(3R)-3-hydroxypyrrolidin-1-yl]methanone], the inhibition constant (Ki) in assay [1] (setting [5]) was determined as 3.4 nM. Affinity in assay [1] (setting [6]) was put at a Ki of 3.43 nM. Also, in assay [2], the “Efficacy (GABA)%” value came to 74% and the “Fold increase h-GABA-A α2β2γ1 oocyte @ 30-fold Ki” value turned out to be 1.74. Also, the Ki in assay [3] turned out to be 1.44 nM. In assay [4], affinity was put at a Ki of 1010 nM, the “γ2/γ1 Selectivity Ratio” value worked out at 294.7 and the LogSel was determined as 2.47.
For the compound `C[C@@H]1N=C(c2ncccc2F)c2c(ccc(Br)c2Cl)-n2nc(C(=O)N3CCC3)nc21` [Example 48, azetidin-1-yl-[(4S)-8-bromo-7-chloro-6-(3-fluoro-2-pyridyl)-4-methyl-4H-[1,2,4]triazolo[1,5-a][1,4]benzodiazepin-2-yl]methanone], the inhibition constant Ki in assay [1] (setting [5]) was 18.6 nM; in assay [1] (setting [6]) it was 18.6 nM; in assay [3], 3.22 nM; in assay [4] it was 1310 nM. Further, the “Efficacy (GABA)%” value in assay [2] is on record as 94%. Further, the “Fold increase h-GABA-A α2β2γ1 oocyte @ 30-fold Ki” value in assay [2] is reported as 1.94. In assay [4], the “γ2/γ1 Selectivity Ratio” value turned out to be 70.2. Besides, in assay [4], the LogSel is 1.85.
The compound `C[C@@H]1N=C(c2c(F)cccc2F)c2c(ccc(Cl)c2Cl)-n2nc(C3CC3)nc21` [Example 49, (4S)-7,8-dichloro-2-cyclopropyl-6-(2,6-difluorophenyl)-4-methyl-4H-[1,2,4]triazolo[1,5-a][1,4]benzodiazepine] gave an inhibitory constant (Ki) in assay [1] (setting [5]) of 15.7 nM. The same compound had a Ki in assay [1] (setting [6]) of 15.7 nM. In assay [2], the “Efficacy (GABA)%” value was determined as 75% and the “Fold increase h-GABA-A α2β2γ1 oocyte @ 30-fold Ki” value is given as 1.75. Further, the affinity in assay [3], expressed as Ki, was 1.41 nM. Moreover, in assay [4], the Ki turned out to be 619 nM, the “γ2/γ1 Selectivity Ratio” value is 39.5 and the LogSel is listed as 1.60.
In the case of `C[C@@H]1N=C(c2c(F)cccc2F)c2c(ccc(Cl)c2Cl)-n2nc(N3CCCC3=O)nc21` [Example 50, 1-[(4S)-7,8-dichloro-6-(2,6-difluorophenyl)-4-methyl-4H-[1,2,4]triazolo[1,5-a][1,4]benzodiazepin-2-yl]pyrrolidin-2-one], affinity in assay [1] (setting [5]) was put at a Ki of 4.5 nM. The same compound returned a Ki in assay [1] (setting [6]) of 4.5 nM. Moreover, in assay [2], the “Efficacy (GABA)%” value came to 60% and the “Fold increase h-GABA-A α2β2γ1 oocyte @ 30-fold Ki” value worked out at 1.60. Further, the Ki in assay [3] is 0.89 nM. In addition, in assay [4], the Ki came out at 376 nM, the “γ2/γ1 Selectivity Ratio” value was 83.5 and the LogSel amounted to 1.92.
As for `C[C@@H]1N=C(c2c(F)cccc2F)c2c(ccc(Cl)c2Cl)-n2nc(N3CCS(=O)(=O)CC3)nc21` [Example 52, 4-[(4S)-7,8-dichloro-6-(2,6-difluorophenyl)-4-methyl-4H-[1,2,4]triazolo[1,5-a][1,4]benzodiazepin-2-yl]-1,4-thiazinane 1,1-dioxide], the Ki in assay [1] (setting [5]) was 12.4 nM. Besides, in assay [1] (setting [6]), affinity was put at a Ki of 12.4 nM. In assay [2], the “Efficacy (GABA)%” value was determined as 41% and the “Fold increase h-GABA-A α2β2γ1 oocyte @ 30-fold Ki” value was 1.41. In assay [3], this compound returned an inhibition constant Ki of 1.26 nM. In assay [4], the Ki was 578 nM, the “γ2/γ1 Selectivity Ratio” value was 46.6 and the LogSel came out at 1.67.
Turning to `C[C@@H]1N=C(c2c(F)cccc2F)c2c(ccc(Cl)c2Cl)-n2nc(C#N)nc21` [Example 53, (4S)-7,8-dichloro-6-(2,6-difluorophenyl)-4-methyl-4H-[1,2,4]triazolo[1,5-a][1,4]benzodiazepine-2-carbonitrile], in assay [1] (setting [5]), the affinity corresponds to a Ki of 61.4 nM. In assay [1] (setting [6]), this compound returned a Ki of 61.4 nM. Besides, in assay [2], the “Efficacy (GABA)%” value worked out at 73% and the “Fold increase h-GABA-A α2β2γ1 oocyte @ 30-fold Ki” value is recorded as 1.73. Affinity in assay [3] was put at a Ki of 1.65 nM. Besides, in assay [4], the Ki is 2550 nM, the “γ2/γ1 Selectivity Ratio” value is 41.5 and the LogSel stood at 1.62.
`C[C@@H]1N=C(c2c(F)cccc2F)c2c(ccc(Cl)c2Cl)-n2nc(C(=O)NC3COC3)nc21` [Example 55, (4S)-7,8-dichloro-6-(2,6-difluorophenyl)-4-methyl-N-(oxetan-3-yl)-4H-[1,2,4]triazolo[1,5-a][1,4]benzodiazepine-2-carboxamide]: the inhibitory constant (Ki) in assay [1] (setting [5]) came to 5.4 nM. Further, in assay [1] (setting [6]), the inhibition constant (Ki) worked out at 5.4 nM. Moreover, in assay [2], the “Efficacy (GABA)%” value stood at 58% and the “Fold increase h-GABA-A α2β2γ1 oocyte @ 30-fold Ki” value was determined as 1.58. For the same compound, in assay [3], the Ki was found to be 1.15 nM. For the same compound, in assay [4], affinity was put at a Ki of 555 nM, the “γ2/γ1 Selectivity Ratio” value came to 102.8 and the LogSel is given as 2.01.
`C[C@@H]1N=C(c2c(F)cccc2F)c2c(ccc(Cl)c2Cl)-n2nc(C(=O)NCC#N)nc21` [Example 56, (4S)-7,8-dichloro-N-(cyanomethyl)-6-(2,6-difluorophenyl)-4-methyl-4H-[1,2,4]triazolo[1,5-a][1,4]benzodiazepine-2-carboxamide]: the Ki in assay [1] (setting [5]) is 4.6 nM; in assay [1] (setting [6]), 4.63 nM; in assay [3], 0.85 nM; in assay [4], 432 nM. The “Efficacy (GABA)%” value in assay [2] was 72%. The “Fold increase h-GABA-A α2β2γ1 oocyte @ 30-fold Ki” value in assay [2] is recorded as 1.72. In addition, the “γ2/γ1 Selectivity Ratio” value in assay [4] came out at 93.4. Moreover, the LogSel in assay [4] worked out at 1.97.
`C[C@@H]1N=C(c2c(F)cccc2F)c2c(ccc(Cl)c2Cl)-n2nc(NC(=O)N3CC(F)C3)nc21` [Example 57, 3-fluoro-N-[(4S)-7,8-dichloro-6-(2,6-difluorophenyl)-4-methyl-4H-[1,2,4]triazolo[1,5-a][1,4]benzodiazepin-2-yl]azetidine-1-carboxamide]: the inhibition constant Ki in assay [1] (setting [5]) was determined as 17.8 nM. Moreover, the inhibitory constant (Ki) in assay [1] (setting [6]) is 17.8 nM. Also, in assay [2], the “Efficacy (GABA)%” value is listed as 76% and the “Fold increase h-GABA-A α2β2γ1 oocyte @ 30-fold Ki” value is 1.76. This compound also returned a Ki in assay [3] of 1.84 nM. Besides, in assay [4], the Ki turned out to be 822 nM, the “γ2/γ1 Selectivity Ratio” value came to 46.2 and the LogSel is on record as 1.67.
